Experimental data: patent US20250034197A1, “NUCLEOSIDE-DIPHOSPHATE-HEPTOSE COMPOUNDS FOR TREATING CONDITIONS ASSOCIATED WITH ALPK1 ACTIVITY” (PYROTECH (BEIJING) BIOTECHNOLOGY CO., LTD., priority 2021, published 2025)
Where two headings read alike, the source gives them in different places.

What was measured:
[1] = molecular target: T1, ALPK1 (Homo sapiens, UniProt Q96QP1); assay: Enzymatic assay of ALPK1 activation; format: biochemical
T1 construct: endogenous in cells; host or cells: 293T cells
T1 sequence (Q96QP1 whole entry): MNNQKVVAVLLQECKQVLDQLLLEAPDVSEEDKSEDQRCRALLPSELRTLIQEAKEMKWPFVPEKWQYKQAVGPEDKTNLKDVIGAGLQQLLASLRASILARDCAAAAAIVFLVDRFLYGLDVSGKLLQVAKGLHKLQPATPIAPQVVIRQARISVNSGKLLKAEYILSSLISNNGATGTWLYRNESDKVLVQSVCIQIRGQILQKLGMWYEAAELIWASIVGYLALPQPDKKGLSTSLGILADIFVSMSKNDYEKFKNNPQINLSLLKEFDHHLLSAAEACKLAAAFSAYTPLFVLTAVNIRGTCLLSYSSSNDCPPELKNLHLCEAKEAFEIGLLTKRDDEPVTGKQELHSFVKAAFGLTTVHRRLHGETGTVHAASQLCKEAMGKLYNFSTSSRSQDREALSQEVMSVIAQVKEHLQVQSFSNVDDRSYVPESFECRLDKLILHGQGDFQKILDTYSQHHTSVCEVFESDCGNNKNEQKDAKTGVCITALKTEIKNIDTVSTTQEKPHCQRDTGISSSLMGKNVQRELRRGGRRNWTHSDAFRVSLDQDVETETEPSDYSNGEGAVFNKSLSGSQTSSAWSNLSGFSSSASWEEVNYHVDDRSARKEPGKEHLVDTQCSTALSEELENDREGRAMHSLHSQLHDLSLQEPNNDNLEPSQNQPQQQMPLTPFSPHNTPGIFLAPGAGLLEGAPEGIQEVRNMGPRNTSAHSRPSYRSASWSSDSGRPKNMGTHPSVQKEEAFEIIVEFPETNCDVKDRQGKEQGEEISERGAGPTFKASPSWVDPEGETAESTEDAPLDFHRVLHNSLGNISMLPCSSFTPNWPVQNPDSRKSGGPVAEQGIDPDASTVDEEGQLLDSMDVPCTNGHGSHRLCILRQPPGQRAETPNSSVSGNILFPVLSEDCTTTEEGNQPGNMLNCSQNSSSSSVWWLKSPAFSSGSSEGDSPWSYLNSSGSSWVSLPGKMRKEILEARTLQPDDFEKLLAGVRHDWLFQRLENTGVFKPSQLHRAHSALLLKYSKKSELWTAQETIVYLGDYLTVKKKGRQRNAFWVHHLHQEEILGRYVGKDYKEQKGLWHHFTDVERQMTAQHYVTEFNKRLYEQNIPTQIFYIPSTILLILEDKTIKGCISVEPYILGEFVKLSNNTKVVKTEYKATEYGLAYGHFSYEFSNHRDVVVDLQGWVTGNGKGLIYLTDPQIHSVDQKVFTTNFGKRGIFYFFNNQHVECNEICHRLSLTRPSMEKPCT

[2] = molecular target: T1, ALPK1; assay: NF-κB luciferase reporter assay in 293T cells (cellular assay); format: cell-based
Procedure: The compounds disclosed herein activate NF-κB through ALPK1-TIFA axis as determined by the NF-κB luciferase reporter and TIFA phosphorylation. For NF-κB luciferase assay, the plasmids (pNL2.2-BII-5RE-Luc), and control vector (pRL-TK) were transfected into 293T cells with the Jetprime reagents (Polyplus). NF-κB luciferase activity was determined using the dual luciferase assay kit (Promega) according to the manufacturer's instructions. TIFA phosphorylation upon the treatment with the compounds disclosed herein described in Table 1, were assayed with immunoblotting. Briefly, for the immunoblotting assay, the 293T cells were seeded in 12-well-plates and cultured for 16 h, and treated with indicated compounds for another 2 hours. Subsequently, the cells were collected and sampled as the regular western-blotting method, immunoblotted by the TIFA phosphorylation specific antibody (ab214815, Abcam).
The EC50 of the compounds disclosed herein were determined by the NF-κB luciferase reporter assay using 293T cells described supra. Compounds with indicated concentrations were added to the culture medium of 293T and the NF-κB luciferase activity was determined using the dual luciferase assay kit (Promega) according to the manufacturer's instructions. […] These chemical entities induce strong activation of the immune regulator NF-κB.

[3] = PK / tissue distribution in Sprague-Dawley rats; format: in vivo; settings: female, rat; for Cmax: PO, 5 mg/kg; for clearance: IV 1 mg/kg, read-out: CL post IV Dosing @1 mg/kg; for half-life: PO 5 mg/kg, read-out: T1/2 post PO Dosing @5 mg/kg (converted)
Procedure: Tissue distribution study of the compounds disclosed herein were conducted in SD rats and mice to assess their liver-targeting properties. The compounds disclosed herein were orally administered to SD rats and mice, and the concentration of the compound and its metabolites were tested in plasma and liver at different time points.
The pharmacokinetics of the compounds disclosed herein were evaluated in female Sprague-Dawley rats after administration via oral gavage and intravenous bolus (IV) injection. The test compound was dissolved in 0.5% methylcellulose for oral gavage and in 30% HP-β-CD for IV injection. The animals used for oral administration were fasted overnight prior to dosing and fed normal daily feed at 4 hours post-dose, but the animals used for IV dosing had free access to food during the study. Plasma samples were collected at pre-dose, 0.033 (IV only), 0.083, 0.25, 0.5, 1, 2, 4, 7 and 24 hours post-dose. Liver samples were collected at 1, 3 and 6 hours post-dose. The samples were analyzed by LC/MS/MS and the concentrations of test compound and its metabolites at each time point were determined. Pharmacokinetic parameters were calculated from the plasma concentrations using Pheonix WinNonlin.
Particularly, preferable compounds have a ratio for liver concentration to plasma concentration of greater than 2, more preferable compounds have a ratio for liver concentration to plasma concentration of greater than 5, and most preferable compounds have a ratio for liver concentration to plasma concentration of greater than 10. The PK properties and tissue exposure of representative compounds and control compound ADPS-Heptose in Rats are given below.

[4] = plasma, read-out: Cmax in Plasma

Question: Which EC50 [1] does the source give for `C=C[C@@]1(O)[C@H](O)[C@@H](CO[P@](=O)(S)OP(=O)(O)OC2OC([C@@H](O)CO)C(O)C(O)C2O)O[C@H]1n1cnc2c(N)ncnc21` (single isomer, unassigned) [Example 31Q] here?
Answer: 11 nM

Question: And the EC50 [2]?
Answer: 7.01 nM

Question: Which results are given for `C=C[C@@]1(O)[C@H](O)[C@@H](CO[P@@](=O)(S)OP(=O)(O)OC2OC([C@@H](O)CO)C(O)C(O)C2O)O[C@H]1n1cnc2c(N)ncnc21` (single isomer, unassigned) [Example 31R]?
Answer: EC50 [1]: 12 nM; EC50 [2]: 13.6 nM

Question: With `C=C[C@@]1(F)[C@H](O)[C@@H](COP(=O)(S)OP(=O)(O)OC2OC([C@@H](O)CO)C(O)C(O)C2O)O[C@H]1n1cnc2c(N)ncnc21` (single isomer, unassigned) [Example 41D] as the compound, how does the EC50 [1] read?
Answer: 4.1 nM

Question: What about the EC50 [2] of the same compound?
Answer: 5.71 nM

Question: Which results are given for `C#C[C@@]1(F)[C@H](O)[C@@H](COP(=O)(S)OP(=O)(O)OC2OC([C@@H](O)CO)C(O)C(O)C2O)O[C@H]1n1cnc2c(N)ncnc21` (stereo partly drawn) [Example 21D]?
Answer: EC50 [1]: 26 nM; EC50 [2]: 4.08 nM

Question: Which results are given for `C#C[C@@]1(F)[C@H](O)[C@@H](COP(=O)(S)OP(=O)(O)OC2OC([C@@H](O)CO)C(O)C(O)C2O)O[C@H]1n1ccc(=O)[nH]c1=O` (stereo partly drawn) [Example 22D]?
Answer: EC50 [1]: 64 nM; EC50 [2]: 5.66 nM

Question: With `C#C[C@@]1(O)[C@H](O)[C@@H](COP(=O)(S)OP(=O)(O)OC2OC([C@@H](O)CO)C(O)C(O)C2O)O[C@H]1n1cnc2c(N)ncnc21` (stereo partly drawn) [Example 25D] as the compound, how does the EC50 [1] read?
Answer: 17 nM

Question: What about the EC50 [2] of the same compound?
Answer: 8.41 nM

Question: Which EC50 [2] does the source give for `C=C[C@@]1(O)[C@H](O)[C@@H](COP(=O)(S)OP(=O)(O)OC2OC([C@H](COC(C)=O)OC(C)=O)C(OC(C)=O)C(OC(C)=O)C2OC(C)=O)O[C@H]1n1cnc2c(N)ncnc21` (stereo partly drawn) [Example 31C] here?
Answer: 16.9 nM

Question: And the Cmax ([3]; liver, read-out: Cmax in Liver)?
Answer: 30.5 ng/g

Question: And the Cmax [3, 4]?
Answer: < 1 ng/mL

Question: And the clearance ([3]; plasma)?
Answer: 14.6 mL/min/kg

Question: And the half-life ([3]; plasma)?
Answer: 104 min

Question: Which EC50 [1] does the source give for `C=C[C@@]1(O)[C@H](O)[C@@H](COP(=O)(S)OP(=O)(O)OC2OC([C@@H](O)CO)C(O)C(O)C2O)O[C@H]1n1cnc2c(N)ncnc21` (stereo partly drawn) [Example 31D] here?
Answer: 24 nM

Question: What about the EC50 [2] of the same compound?
Answer: 16 nM

Question: For `CC(=O)OC[C@H](OC(C)=O)C1OC(OP(=O)(O)OP(=O)(S)OC[C@H]2O[C@@H](n3cnc4c(N)ncnc43)[C@H](N(C)C)[C@@H]2O)C(OC(C)=O)C(OC(C)=O)C1OC(C)=O` (stereo partly drawn) [Example 35C], which EC50 [2] is on record?
Answer: 18.9 nM

Question: And the Cmax ([3]; liver, read-out: Cmax in Liver)?
Answer: 1330 ng/g

Question: What about the Cmax [3, 4] of the same compound?
Answer: 75.5 ng/mL

Question: And the clearance ([3]; plasma)?
Answer: 7.67 mL/min/kg

Question: And the half-life ([3]; plasma)?
Answer: 27 min

Question: Which results are given for `C=C[C@@]1(F)[C@H](O)[C@@H](COP(=O)(S)OP(=O)(O)OC2OC([C@H](COC(C)=O)OC(C)=O)C(OC(C)=O)C(OC(C)=O)C2OC(C)=O)O[C@H]1n1cnc2c(N)ncnc21` (stereo partly drawn) [Example 41C]?
Answer: EC50 [2]: 8.31 nM; Cmax ([3]; liver, read-out: Cmax in Liver): 18.7 ng/g; Cmax [3, 4]: < 1 ng/mL; clearance ([3]; plasma): 9.76 mL/min/kg; half-life ([3]; plasma): 51 min

Question: With `C=C[C@@]1(F)[C@H](O)[C@@H](COP(=O)(S)OP(=O)(O)OC2OC([C@H](COC(C)=O)OC(C)=O)C(OC(C)=O)C(OC(C)=O)C2OC(C)=O)O[C@H]1n1ccc(=O)[nH]c1=O` (stereo partly drawn) [Example 42C] as the compound, how does the EC50 [2] read?
Answer: 7.57 nM

Question: And the Cmax ([3]; liver, read-out: Cmax in Liver)?
Answer: 31.7 ng/g

Question: What about the Cmax [3, 4] of the same compound?
Answer: 2.4 ng/mL

Question: And the clearance ([3]; plasma)?
Answer: 18.6 mL/min/kg

Question: And the half-life ([3]; plasma)?
Answer: 37.8 min

Question: What does the source list for `C=C[C@@]1(F)[C@H](O)[C@@H](COP(=O)(S)OP(=O)(O)OC2OC([C@@H](O)CO)C(O)C(O)C2O)O[C@H]1n1ccc(=O)[nH]c1=O` (stereo partly drawn) [Example 42D]?
Answer: EC50 [1]: 11 nM; EC50 [2]: 14 nM

Question: For `C=C[C@@]1(O)[C@H](O)[C@@H](COP(=O)(S)OP(=O)(O)OC2OC([C@H](COC(C)=O)OC(C)=O)C(OC(C)=O)C(OC(C)=O)C2OC(C)=O)O[C@H]1n1ccc(=O)[nH]c1=O` (stereo partly drawn) [Example 43C], which EC50 [2] is on record?
Answer: 20.7 nM

Question: What about the Cmax ([3]; liver, read-out: Cmax in Liver) of the same compound?
Answer: 22.4 ng/g

Question: What about the Cmax [3, 4] of the same compound?
Answer: < 1 ng/mL

Question: And the clearance ([3]; plasma)?
Answer: 8.25 mL/min/kg

Question: And the half-life ([3]; plasma)?
Answer: 140 min

Question: What does the source list for `C=C[C@@]1(O)[C@H](O)[C@@H](COP(=O)(S)OP(=O)(O)OC2OC([C@@H](O)CO)C(O)C(O)C2O)O[C@H]1n1ccc(=O)[nH]c1=O` (stereo partly drawn) [Example 43D]?
Answer: EC50 [1]: 48 nM; EC50 [2]: 18.3 nM

Question: What does the source list for `C=C[C@@]1(O)[C@H](O)[C@@H](COP(=O)(S)OP(=O)(O)OC2OC([C@H](COC(C)=O)OC(C)=O)C(OC(C)=O)C(OC(C)=O)C2OC(C)=O)O[C@H]1c1cnc2c(N)ncnn12` (stereo partly drawn) [Example 127C]?
Answer: EC50 [2]: 2.94 nM; Cmax ([3]; liver, read-out: Cmax in Liver): 48.5 ng/g; Cmax [3, 4]: 0.4 ng/mL; clearance ([3]; plasma): 17.6 mL/min/kg; half-life ([3]; plasma): 38.4 min

Question: With `CS[C@@H]1[C@H](O)[C@@H](COP(=O)(S)OP(=O)(O)OC2OC([C@H](COC(C)=O)OC(C)=O)C(OC(C)=O)C(OC(C)=O)C2OC(C)=O)O[C@H]1n1ccc(=O)[nH]c1=O` (stereo partly drawn) [Example 262C] as the compound, how does the EC50 [2] read?
Answer: 36.3 nM

Question: Which EC50 [2] does the source give for `CS[C@@H]1[C@H](O)[C@@H](COP(=O)(S)OP(=O)(O)OC2OC([C@@H](O)CO)C(O)C(O)C2O)O[C@H]1n1ccc(=O)[nH]c1=O` (stereo partly drawn) [Example 262D] here?
Answer: 101 nM

Question: For `C#C[C@@]1(O)[C@H](O)[C@@H](COP(=O)(S)OP(=O)(O)OC2OC([C@H](COC(C)=O)OC(C)=O)C(OC(C)=O)C(OC(C)=O)C2OC(C)=O)O[C@H]1c1csc2c(N)ncnc12` (stereo partly drawn) [Example 264C], which EC50 [2] is on record?
Answer: 48.3 nM

Question: Which EC50 [2] does the source give for `C=C[C@@]1(O)[C@H](O)[C@@H](COP(=O)(S)OP(=O)(O)OC2OC([C@H](COC(C)=O)OC(C)=O)C(OC(C)=O)C(OC(C)=O)C2OC(C)=O)O[C@H]1c1csc2c(N)ncnc12` (stereo partly drawn) [Example 265C] here?
Answer: 45.4 nM

Question: For `C=C[C@@]1(O)[C@H](O)[C@@H](COP(=O)(S)OP(=O)(O)OC2OC([C@@H](OC(C)=O)C(COC(C)=O)OC(C)=O)C(OC(C)=O)C(OC(C)=O)C2OC(C)=O)O[C@H]1n1cnc2c(N)ncnc21` (stereo partly drawn) [Example 321C], which EC50 [2] is on record?
Answer: > 1000 nM

Question: With `CO[C@@H]1[C@H](O)[C@@H](COP(=O)(S)OP(=O)(O)OC2OC([C@H](COC(C)=O)OC(C)=O)C(OC(C)=O)C(OC(C)=O)C2OC(C)=O)O[C@H]1c1cnc2c(N)ncnn12` (stereo partly drawn) [Example 322C] as the compound, how does the EC50 [2] read?
Answer: 6.76 nM
